Like-named read-outs stand apart in the source and are kept apart here. No end group written: not given here.
Columns and labels:
B-LCLs expressing WT1 [1] = assay: 51Cr release assay: cytotoxic activity of CTL against cell expressing WT1 endogenously; settings: B-LCL into which a human WT1 gene is introduced; FIGS. 1, 2, 4, 5 and 7
Protocol: (§1) The PBMCs were then seeded to a 24-well cell culture plate at the density of about 1×10^7 in RPMI 1640 medium containing 10% FCS, and a culture supernatant of B95-8 cells (cells producing EB virus) were added. They were cultured at 37° C. with 5% CO2 for about 1 month. B-LCL cells transformed with EB virus, which are B-cell tumor cells, were obtained. […] B-LCL cells were pulsed by incubating them with 20 μg/ml of WT1251, WT1279, WT1312, WT1313, WT1338, WT1378, WT1386, WT1415 or WT1436 for 2 hours, and irradiated with 80 Gy of radiation. The resulting B-LCL cells (hereinafter referred to as B-LCL cells pulsed with a WT1 peptide) were used as antigen-presenting cells for the following experiments.
(§2) 3×10^6 of autologous PBMCs were cultured in a 24-well cell culture plate in complete medium (45% RPMI, 45% AMI-V medium and 10% human AB serum) containing 20 μg/ml of WT1251, WT1279, WT1312, WT1313, WT1338, WT1378, WT1386, WT1415 or WT1436 at 37° C. with 5% CO2 for 1 week to obtain responding cells. 2×10^6 of the resulting responding cells were cocultured with 1×10^6 of the B-LCL cells pulsed with the same WT1 peptide in complete medium for 1 week (first stimulation). The PBMCs were coculutured with the B-LCL cells pulsed with the WT1 peptide three more times (second to fourth stimulations) under the conditions under which 20 IU/ml (final concentration) of IL2 was added as follows: second stimulation: two times every other day from 3 days after the initiation of stimulation; third and fourth stimulations: three times at intervals of one day from the day after the initiation of stimulation. The resulting cells were concentrated using Negative Selection Columns Gravity Feed Kit (StemSp) so that the ratio of CD8-positive T cells became about 80%, and cocultured with the B-LCL cells pulsed with the WT1 peptide (fifth stimulation). CD8-positive T cells (CTLs) obtained 5 days after the final stimulation were used for measurement of the cytotoxic activity.
(§3) The cytotoxic activity of CTLs was measured using ^51Cr release assay. CTL cells (hereinafter referred to as effector cells) were mixed at the ratio (E/T ration) of 1:1 to 30:1 in 200 μl of medium with target cells into which ^51Cr had been incorporated, and cultured in a 96-well cell culture plate at 37° C. with 5% CO2 for 4 hours. B-LCL cells pulsed with the same WT1 peptide as that used for induction of CTLs (BLCL-Ps), and B-LCL cells without pulsing with a WT1 peptide (BLCL-NPs) were used as target cells. After the culture, the supernatants were collected by centrifugation. The amounts of ^51Cr released into the supernatants were measured using a liquid scintillation counter. The cytotoxic activity (%) was determined using the following formula: (^51Cr release in supernatant of sample−Spontaneous ^51Cr release)/(Maximum ^51Cr release−Spontaneous ^51Cr release)×100 wherein Spontaneous ^51Cr release is ^51Cr release observed when the target cells into which ^51Cr had been incorporated were cultured alone under the same condition, and Maximum ^51Cr release is ^51Cr release observed when the target cells into which ^51Cr had been incorporated were completely lysed using 1% Triton X-100.
(§4) The cytotoxic activity of CTLs induced with WT1251, WT1279, WT1313, WT1338 or WT1386 against B-LCLs expressing WT1 was determined using the method described above.

[2] = system: B-LCL cells pulsed with the same WT1 peptide (BLCL-Ps); assay: 51Cr release assay: cytotoxic activity of CTLs induced with WT1 peptide against peptide-pulsed B-LCL cells; settings: CTLs induced with 20 μg/ml peptide; E/T ratio 1:1 to 30:1; 4 hours; FIGS. 1-9
Protocol: The PBMCs were then seeded to a 24-well cell culture plate at the density of about 1×10^7 in RPMI 1640 medium containing 10% FCS, and a culture supernatant of B95-8 cells (cells producing EB virus) were added. They were cultured at 37° C. with 5% CO2 for about 1 month. B-LCL cells transformed with EB virus, which are B-cell tumor cells, were obtained. […] B-LCL cells were pulsed by incubating them with 20 μg/ml of WT1251, WT1279, WT1312, WT1313, WT1338, WT1378, WT1386, WT1415 or WT1436 for 2 hours, and irradiated with 80 Gy of radiation. The resulting B-LCL cells (hereinafter referred to as B-LCL cells pulsed with a WT1 peptide) were used as antigen-presenting cells for the following experiments. […]
The cytotoxic activity of CTLs was measured using ^51Cr release assay. […] The amounts of ^51Cr released into the supernatants were measured using a liquid scintillation counter. The cytotoxic activity (%) was determined using the following formula: (^51Cr release in supernatant of sample−Spontaneous ^51Cr release)/(Maximum ^51Cr release−Spontaneous ^51Cr release)×100 wherein Spontaneous ^51Cr release is ^51Cr release observed when the target cells into which ^51Cr had been incorporated were cultured alone under the same condition, and Maximum ^51Cr release is ^51Cr release observed when the target cells into which ^51Cr had been incorporated were completely lysed using 1% Triton X-100.

human cells = settings: HLA-A*2402; Non-patent Document 12; cited from earlier work
B-LCLs expressing WT1 [3] = system: B-LCLs expressing WT1
Protocol: as §1, §2, §3, §4

[4] = system: human peripheral blood mononuclear cells having HLA-A*0201; settings: human PBMCs having HLA-A*0201; Non-patent Document 11; cited from earlier work
[5] = system: PBMCs from HLA-A*1101-positive healthy donors; assay: Induction of CTL by WT1 peptide dimer and related peptides using PBMCs from HLA-A*1101-positive healthy donors 1-3; type: cell-based, human; settings: FIGS. 10-14
Text: After the culture, the supernatants were collected by centrifugation.
Abilities of the resulting WT1378 peptide dimer, WT1378 peptide, modified WT1378 peptide (G→I) (SEQ ID No: 11) and modified WT1378 peptide (G→V) (SEQ ID No: 12) as well as WT1379 peptide (SEQ ID No: 13, as disclosed in WO 2002/28414) to induce a CTL were examined using PBMCs from HLA-A*1101-positive healthy donors 1-3 according to the method as described above.

With AAGSSSSVK [WT1251] the “cytotoxic activity of induced CTLs against cells expressing WT1 gene endogenously” value (B-LCLs expressing WT1 [1]) was “have a cytotoxic activity against cells expressing WT1 gene endogenously” and the “cytotoxic activity of induced CTLs against BLCL-Ps as compared with BLCL-NPs” value [2] was “damage specifically BLCL-Ps”.
In the case of “CMTWNQMNL (listed as Homo sapiens) [WT1235, WT1 peptide that matches HLA-A*2402]”, the “induction of WT1-specific CTLs” value (human cells) is given as “WT1-specific CTLs (TAK-1) are induced”.
In the case of KTCQRKFSR [WT1386], the “cytotoxic activity of induced CTLs against cells expressing WT1 gene endogenously” value (B-LCLs expressing WT1 [3]) was “have a cytotoxic activity against cells expressing WT1 gene endogenously”.
With PILCGAQYR [WT1279] the “cytotoxic activity of induced CTLs against cells expressing WT1 gene endogenously” value (B-LCLs expressing WT1 [3]) was “have a cytotoxic activity against cells expressing WT1 gene endogenously”.
With SASETSEKR [WT1313] the “cytotoxic activity of induced CTLs against cells expressing WT1 gene endogenously” value (B-LCLs expressing WT1 [3]) was “have a cytotoxic activity against cells expressing WT1 gene endogenously”.
With SHLQMNSRK [WT1338] the “cytotoxic activity of induced CTLs against cells expressing WT1 gene endogenously” value (B-LCLs expressing WT1 [3]) was “have a cytotoxic activity against cells expressing WT1 gene endogenously”.
In the case of “SLGEQQYSV (listed as Homo sapiens) [WH187 peptide]”, the “induction of WT1-specific CTLs” value [4] is listed as “WT1-specific CTLs are induced”.
With “WT1379 peptide: known peptide disclosed in WO 2002/28414; differs from WT1378 peptide by one amino acid in the WT1 protein sequence (GVKPFQCKT; listed as Homo sapiens)” the “ability to induce a CTL” value [5] was “much lower than that of WT1378 peptide”.

From US9272026B2, “HLA-A*1101-restricted WT1 peptide and pharmaceutical composition comprising the same” (International Institute of Cancer Immunology, Inc., priority 2006, dated 2016)
